The subject of the test is Clostridium perfringens. The test is classed as in vivo, broiler chickens (Cobb X Cobb). As to conditions: CP challenged.

`CC[C@@H](C(=O)[C@@H](C)[C@@H](O)[C@H](C)[C@@H]1O[C@@H]([C@@H](CC)C(=O)O)CC[C@@H]1C)[C@H]1O[C@]2(C=C[C@@H](O)[C@]3(CC[C@@](C)([C@H]4CC[C@](O)(CC)[C@H](C)O4)O3)O2)[C@H](C)C[C@@H]1C` [S, salinomycin]: where the note is “Day 22, 0 to 3 score”, the “Necrotic Enteritis Lesion Score” value is on record as 0.10. For the setting “Days 0 to 21”, the “Average Weight Gain (kg) Days 0 to 21” value is “.592 kg” and the “Feed Conversion Ratio (feed to gain ratio) Days 0 to 21” value is 1.550. Besides, for the setting “Days 0 to 42”, the “Feed Conversion Ratio (feed to gain ratio) Days 0 to 42” value was 1.914, the “Mortality (%) All Causes Days 0 to 42” value was found to be 4.67% and the “Mortality (%) Necrotic Enteritis Days 0 to 42” value came out at 1.33%. For the same compound, the “Feed Conversion Ratio (feed to gain ratio) Days 21 to 42” value (Days 21 to 42) was determined as 2.126.
